According to patent publication US11472807B2, “Purine derivatives for use as medicament and for use in treating neurodegenerative or neuro-inflammatory disorders” (COMMISSARIAT À L'ENERGIE ATOMIQUE ET AUX ENERGIES …, priority 2017, dated 2022):

Legend:
[1] = system: non-spatial medium-term memory; assay: Novel object recognition (NOR) test; format: in vivo, C57Bl/6J mice; conditions: WT mice, 8 mg/kg subcutaneous, 28 days
Procedure: FIG. 14. Plots illustrating the effect of Aftin-5 on non-spatial medium-term memory. C57B1/6J mice were exposed sub-cutaneously to (A) the vehicle condition (DMSO/PEG) or (B) Aftin-5 at 8 mg/kg, during 28 days through an Alzet pump. 3-4 weeks later, cognitive abilities were assessed through different novel object recognition (NOR) tests, including the recognition of familiar objects (dark gray bars) or novel objects (light gray bars). Two-way ANOVA and Bonferroni post-hoc tests were performed and *p<0.05 indicates significant differences between Aftin-5 and control conditions, **p<0.01. Data expressed as means+/−SEM with n=15 mice/condition.
The NOR test is a test to assess the medium-term non-spatial memory (object). This test takes place in 3 sessions: the Open Field, the Familiarization session and the Test session. The first session allows the habituation of the mouse to the arena. The mouse is placed in the empty arena for 15 min. During this session, the velocity, locomotor activity and anxiety of the mouse are checked. The second session is to familiarize the animal with objects. For this, 24 hours after the Open Field, the mouse is placed in the arena containing two identical objects. The mouse will explore the arena and the two objects placed in the center for 10 min. Finally, after an interval of pre-established time (24 hours), the mouse is placed again in the same arena. […]

[2] = system: short-term memory (working memory); assay: Y-maze spontaneous alternation test; format: in vivo, C57Bl/6J mice; conditions: WT mice, 8 mg/kg subcutaneous, 28 days
Procedure: FIG. 13. Plots illustrating the effect of Aftin-5 on short-term memory (working memory) in Y maze. C57B1/6J mice were exposed sub-cutaneously to Aftin-5 at 8 mg/kg (A8) or vehicle (DMSO/PEG; Veh) during 28 days through an Alzet pump. 3-4 weeks later, cognitive abilities were assessed by the means of the total number of arm entries (A) and the percentage of alternation (B). Mann-Whitney tests were performed and **p<0.01 indicates significant differences between Aftin-5 and control conditions. Data expressed as means+/−SEM with n=15 mice/condition. The spontaneous alternation test (Y maze) is a test to evaluate the short-term memory (working memory) of the animal. This test is carried out in a Y-maze with arms customized by different forms; squares (A), triangles (B) and lines (C). The mouse is placed in one of the arms for 8 min. In this test, the mouse is free to explore spontaneously the three arms of the Y-maze (FIG. 1). During the session, the number of entries of each arm of the Y-maze is counted. At the end of the session, the number of possibility (number of total entries in the arms) and the number of spontaneous alternation are calculated. An alternation is defined by consecutive entries in the three different arms (A-B-C). A mouse with a normal phenotype will tend to explore the novelty. […]

IL-10 = IL-10 mRNA in OHSC (RT-qPCR); format: cell-based, mice; conditions: 50 μM, 10 days
Procedure: FIG. 10. Plots illustrating the effect of Aftin-5 on relative mRNA expression levels of interleukin-1-beta (IL-1β; (A)), interleukin-6 (IL-6; (B)), TNF-alpha (TNFα; (C)) and interleukin-10 (IL-10; (D)) in organotypic hippocampal slice cultures (OHSC). OHSC culture media […] were replaced by incubation medium containing Aftin-5 (50 μM; A50) or vehicle (0.1% DMSO; Veh). 10 days later, total mRNA in lysate was isolated and purified, cDNAs were then synthesized from […] of total mRNA. cDNAs were amplified by quantitative RT-PCR and the relative expression of specific genes was normalized to the housekeeping gene HPRT1 (2^−ΔCt). Mann-Whitney tests were performed and ***p<0.001 indicates significant differences between Aftin-5 and control conditions. Data expressed as means+/−SEM from q=3 independent experiments with n=4-6 inserts/condition and 10 slices/insert. […]
The impact of Aftin-5 on gene expression of different biomarkers was determined by measuring mRNA levels of selected BDNF, CREB, PS95, INS Receptor/IGF-1 receptor, IL-1β, IL-6 in OHSC treated chronically with Aftin-5 or in a total brain from mice exposed to Aftin-5 at either 8 or 30 mg/Kg. […] Threshold cycles (Ct) of target gene and cyclophilin A (Ppia−control housekeeping gene) were recorded and gene expression was calculated as 2^−ΔΔCt(ΔΔCt=ΔCttreated−ΔCtcontrol, ΔCt=Cttarget−CtPpia). […]

## CC[C@H](CO)Nc1nc(N(C)c2ccccc2)c2ncn(C(C)C)c2n1 [Aftin-5]
[1]
  improvement of long term object recognition memory in NOR test: does not achieve significance
[2]
  spatial memory in Y-maze: improved spatial memory
IL-10
  IL-10 mRNA synthesis: no changes
